Results: PubChem BioAssay AID256 (DTP/NCI, 2004)
“And” between values parts separate entries of the source, which are not always exact repeats. Equal entries are not always repeated. Inconclusive results and toxic doses are left out.

Tested on: CD2F1 mice, L1210 leukemia ip, survival T/C
Assay: NCI In Vivo Anticancer Drug Screen. Data for tumor model L1210 Leukemia (intraperitoneal) in CD2F1 (CDF1) mice
Details: higher = longer survival
In short: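 Implant tumor; dose compound or vehicle; measure endpoint in both groups; report treated divided by control.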

SMILES: NC(=O)c1csc(C2OC(CO)C(O)C2O)n1 (stereo not drawn)
- T/C (endpoint: mean survival time, dose: 12.5 mg/kg/injection, schedule: Q01DX005 (ip), vehicle: water): 111 % of control
- T/C (endpoint: mean survival time, dose: 25.0 mg/kg/injection, schedule: Q01DX005 (ip), vehicle: water): 120 % of control
- T/C (endpoint: mean survival time, dose: 25.0 mg/kg/injection, schedule: Q01DX009 (ip), vehicle: water): 158 % of control and 162 % of control
- T/C (endpoint: mean survival time, dose: 50.0 mg/kg/injection, schedule: Q01DX005 (ip), vehicle: water): 152 % of control
- T/C (endpoint: mean survival time, dose: 50.0 mg/kg/injection, schedule: Q01DX009 (ip), vehicle: water): 166 % of control and 167 % of control
- T/C (endpoint: mean survival time, dose: 100.0 mg/kg/injection, schedule: Q01DX009 (ip), vehicle: saline): 183 % of control
- T/C (endpoint: mean survival time, dose: 100.0 mg/kg/injection, schedule: Q01DX009 (ip), vehicle: water): 182 % of control
- T/C (endpoint: mean survival time, dose: 150.0 mg/kg/injection, schedule: Q01DX005 (ip), vehicle: water): 150 % of control
- T/C (endpoint: mean survival time, dose: 200.0 mg/kg/injection, schedule: Q01DX009 (ip), vehicle: saline): 182 % of control
- T/C (endpoint: mean survival time, dose: 200.0 mg/kg/injection, schedule: Q01DX009 (ip), vehicle: water): 203 % of control and 219 % of control
- T/C (endpoint: mean survival time, dose: 300.0 mg/kg/injection, schedule: Q01DX005 (ip), vehicle: water): 155 % of control
- T/C (endpoint: mean survival time, dose: 400.0 mg/kg/injection, schedule: Q01DX005 (ip), vehicle: water): 191 % of control and 192 % of control and 216 % of control
- T/C (endpoint: mean survival time, dose: 400.0 mg/kg/injection, schedule: Q01DX009 (ip), vehicle: saline): 224 % of control
- T/C (endpoint: mean survival time, dose: 400.0 mg/kg/injection, schedule: Q01DX009 (ip), vehicle: water): 200 % of control and 229 % of control
- T/C (endpoint: mean survival time, dose: 600.0 mg/kg/injection, schedule: Q01DX009 (ip), vehicle: saline): 230 % of control
- T/C (endpoint: mean survival time, dose: 800.0 mg/kg/injection, schedule: Q01DX005 (ip), vehicle: water): 206 % of control and 247 % of control
- T/C (endpoint: mean survival time, dose: 800.0 mg/kg/injection, schedule: Q01DX009 (ip), vehicle: saline): 171 % of control
- T/C (endpoint: mean survival time, dose: 800.0 mg/kg/injection, schedule: Q01DX009 (ip), vehicle: water): 185 % of control
- T/C (endpoint: median survival time, dose: 4.0 mg/kg/injection, schedule: Q03HX024 (ip), vehicle: water): 150 % of control
- T/C (endpoint: median survival time, dose: 8.0 mg/kg/injection, schedule: Q03HX024 (ip), vehicle: water): 186 % of control
- T/C (endpoint: median survival time, dose: 16.0 mg/kg/injection, schedule: Q03HX024 (ip), vehicle: water): 168 % of control
- T/C (endpoint: median survival time, dose: 16.0 mg/kg/injection, schedule: Q04DX003 (ip), vehicle: water): 101 % of control
- T/C (endpoint: median survival time, dose: 16.0 mg/kg/injection, schedule: Q#A X018 (ip), vehicle: water): 174 % of control
- T/C (endpoint: median survival time, dose: 22.25 mg/kg/injection, schedule: Q01DX005 (ip), vehicle: water): 97 % of control
- T/C (endpoint: median survival time, dose: 23.44 mg/kg/injection, schedule: Q01DX005 (ip), vehicle: water): 98 % of control
- T/C (endpoint: median survival time, dose: 32.0 mg/kg/injection, schedule: Q01DX001 (iv), vehicle: water): 117 % of control
- T/C (endpoint: median survival time, dose: 32.0 mg/kg/injection, schedule: Q01DX005 (ip), vehicle: water): 152 % of control
- T/C (endpoint: median survival time, dose: 32.0 mg/kg/injection, schedule: Q01DX009 (ip), vehicle: water): 159 % of control and 176 % of control
- T/C (endpoint: median survival time, dose: 32.0 mg/kg/injection, schedule: Q01DX009 (oral), vehicle: water): 163 % of control
- T/C (endpoint: median survival time, dose: 32.0 mg/kg/injection, schedule: Q03HX024 (ip), vehicle: water): 184 % of control
- T/C (endpoint: median survival time, dose: 32.0 mg/kg/injection, schedule: Q04DX003 (ip), vehicle: water): 109 % of control
- T/C (endpoint: median survival time, dose: 32.0 mg/kg/injection, schedule: Q#A X018 (ip), vehicle: water): 195 % of control
- T/C (endpoint: median survival time, dose: 44.5 mg/kg/injection, schedule: Q01DX005 (ip), vehicle: water): 102 % of control
- T/C (endpoint: median survival time, dose: 64.0 mg/kg/injection, schedule: Q01DX001 (ip), vehicle: water): 110 % of control
- T/C (endpoint: median survival time, dose: 64.0 mg/kg/injection, schedule: Q01DX001 (iv), vehicle: water): 120 % of control
- T/C (endpoint: median survival time, dose: 64.0 mg/kg/injection, schedule: Q01DX001 (oral), vehicle: water): 111 % of control
- T/C (endpoint: median survival time, dose: 64.0 mg/kg/injection, schedule: Q01DX005 (ip), vehicle: water): 163 % of control
- T/C (endpoint: median survival time, dose: 64.0 mg/kg/injection, schedule: Q01DX005 (iv), vehicle: water): 151 % of control
- T/C (endpoint: median survival time, dose: 64.0 mg/kg/injection, schedule: Q01DX005 (oral), vehicle: water): 150 % of control
- T/C (endpoint: median survival time, dose: 64.0 mg/kg/injection, schedule: Q01DX009 (oral), vehicle: water): 188 % of control
- T/C (endpoint: median survival time, dose: 64.0 mg/kg/injection, schedule: Q03HX024 (ip), vehicle: water): 219 % of control
- T/C (endpoint: median survival time, dose: 64.0 mg/kg/injection, schedule: Q04DX003 (ip), vehicle: water): 114 % of control
- T/C (endpoint: median survival time, dose: 64.0 mg/kg/injection, schedule: Q#A X018 (ip), vehicle: water): 210 % of control
- T/C (endpoint: median survival time, dose: 89.0 mg/kg/injection, schedule: Q01DX005 (ip), vehicle: water): 94 % of control
- T/C (endpoint: median survival time, dose: 93.75 mg/kg/injection, schedule: Q01DX005 (ip), vehicle: water): 101 % of control
- T/C (endpoint: median survival time, dose: 125.0 mg/kg/injection, schedule: Q01DX005 (ip), vehicle: water): 168 % of control
- T/C (endpoint: median survival time, dose: 128.0 mg/kg/injection, schedule: Q01DX001 (ip), vehicle: water): 114 % of control
- T/C (endpoint: median survival time, dose: 128.0 mg/kg/injection, schedule: Q01DX001 (oral), vehicle: water): 123 % of control
- T/C (endpoint: median survival time, dose: 128.0 mg/kg/injection, schedule: Q01DX005 (ip), vehicle: water): 164 % of control
- T/C (endpoint: median survival time, dose: 128.0 mg/kg/injection, schedule: Q01DX005 (iv), vehicle: water): 166 % of control
- T/C (endpoint: median survival time, dose: 128.0 mg/kg/injection, schedule: Q01DX005 (oral), vehicle: water): 163 % of control
- T/C (endpoint: median survival time, dose: 128.0 mg/kg/injection, schedule: Q01DX009 (oral), vehicle: water): 217 % of control
- T/C (endpoint: median survival time, dose: 128.0 mg/kg/injection, schedule: Q03HX024 (ip), vehicle: water): 231 % of control
- T/C (endpoint: median survival time, dose: 128.0 mg/kg/injection, schedule: Q04DX003 (ip), vehicle: water): 118 % of control
- T/C (endpoint: median survival time, dose: 128.0 mg/kg/injection, schedule: Q#A X018 (ip), vehicle: water): 240 % of control
- T/C (endpoint: median survival time, dose: 150.0 mg/kg/injection, schedule: Q01DX005 (ip), vehicle: water): 157 % of control
- T/C (endpoint: median survival time, dose: 178.0 mg/kg/injection, schedule: Q01DX005 (ip), vehicle: water): 98 % of control
- T/C (endpoint: median survival time, dose: 250.0 mg/kg/injection, schedule: Q01DX005 (ip), vehicle: water): 158 % of control and 179 % of control
- T/C (endpoint: median survival time, dose: 256.0 mg/kg/injection, schedule: Q01DX001 (ip), vehicle: water): 117 % of control
- T/C (endpoint: median survival time, dose: 256.0 mg/kg/injection, schedule: Q01DX001 (oral), vehicle: water): 122 % of control
- T/C (endpoint: median survival time, dose: 256.0 mg/kg/injection, schedule: Q01DX005 (ip), vehicle: water): 183 % of control
- T/C (endpoint: median survival time, dose: 256.0 mg/kg/injection, schedule: Q01DX005 (iv), vehicle: water): 190 % of control
- T/C (endpoint: median survival time, dose: 256.0 mg/kg/injection, schedule: Q01DX005 (oral), vehicle: water): 188 % of control
- T/C (endpoint: median survival time, dose: 256.0 mg/kg/injection, schedule: Q01DX009 (oral), vehicle: water): 227 % of control
- T/C (endpoint: median survival time, dose: 256.0 mg/kg/injection, schedule: Q03HX024 (ip), vehicle: water): 246 % of control
- T/C (endpoint: median survival time, dose: 256.0 mg/kg/injection, schedule: Q#A X018 (ip), vehicle: water): 252 % of control
- T/C (endpoint: median survival time, dose: 300.0 mg/kg/injection, schedule: Q01DX005 (ip), vehicle: water): 166 % of control
- T/C (endpoint: median survival time, dose: 356.0 mg/kg/injection, schedule: Q01DX005 (ip), vehicle: water): 101 % of control
- T/C (endpoint: median survival time, dose: 375.0 mg/kg/injection, schedule: Q01DX005 (ip), vehicle: water): 92 % of control
- T/C (endpoint: median survival time, dose: 500.0 mg/kg/injection, schedule: Q01DX005 (ip), vehicle: water): 175 % of control and 201 % of control
- T/C (endpoint: median survival time, dose: 512.0 mg/kg/injection, schedule: Q01DX005 (ip), vehicle: water): 190 % of control
- T/C (endpoint: median survival time, dose: 512.0 mg/kg/injection, schedule: Q01DX005 (iv), vehicle: water): 217 % of control
- T/C (endpoint: median survival time, dose: 512.0 mg/kg/injection, schedule: Q01DX005 (oral), vehicle: water): 195 % of control
- T/C (endpoint: median survival time, dose: 512.0 mg/kg/injection, schedule: Q01DX009 (oral), vehicle: water): 154 % of control
- T/C (endpoint: median survival time, dose: 512.0 mg/kg/injection, schedule: Q03HX024 (ip), vehicle: water): 284 % of control
- T/C (endpoint: median survival time, dose: 512.0 mg/kg/injection, schedule: Q04DX003 (ip), vehicle: water): 180 % of control
- T/C (endpoint: median survival time, dose: 512.0 mg/kg/injection, schedule: Q#A X018 (ip), vehicle: water): 269 % of control
- T/C (endpoint: median survival time, dose: 600.0 mg/kg/injection, schedule: Q01DX005 (ip), vehicle: water): 188 % of control
- T/C (endpoint: median survival time, dose: 1000.0 mg/kg/injection, schedule: Q01DX005 (ip), vehicle: water): 188 % of control and 191 % of control
- T/C (endpoint: median survival time, dose: 1024.0 mg/kg/injection, schedule: Q01DX005 (ip), vehicle: water): 205 % of control
- T/C (endpoint: median survival time, dose: 1024.0 mg/kg/injection, schedule: Q01DX005 (iv), vehicle: water): 226 % of control
- T/C (endpoint: median survival time, dose: 1024.0 mg/kg/injection, schedule: Q01DX005 (oral), vehicle: water): 213 % of control
- T/C (endpoint: median survival time, dose: 1024.0 mg/kg/injection, schedule: Q01DX009 (oral), vehicle: water): 110 % of control
- T/C (endpoint: median survival time, dose: 1024.0 mg/kg/injection, schedule: Q04DX003 (ip), vehicle: water): 191 % of control
- T/C (endpoint: median survival time, dose: 2048.0 mg/kg/injection, schedule: Q01DX001 (oral), vehicle: water): 155 % of control
- T/C (endpoint: median survival time, dose: 2048.0 mg/kg/injection, schedule: Q01DX005 (oral), vehicle: water): 98 % of control
- T/C (endpoint: median survival time, dose: 2048.0 mg/kg/injection, schedule: Q01DX009 (ip), vehicle: water): 109 % of control
- T/C (endpoint: median survival time, dose: 2048.0 mg/kg/injection, schedule: Q04DX003 (ip), vehicle: water): 223 % of control
